These are literature values, as cited in patent publication US9320746B2, “Method for treating intestinal fibrosis” (Sigmoid Pharma Limited, priority 2013, dated 2016).

For the data set the following is noted: extensive first-pass elimination; compared with other corticosteroid formulations.

Molecules are shown by their SMILES.

As for `CCCC1O[C@@H]2C[C@H]3[C@@H]4CCC5=CC(=O)C=C[C@]5(C)[C@H]4[C@@H](O)C[C@]3(C)[C@]2(C(=O)CO)O1` (stereo partly drawn) [budesonide, 16,17-butylidendioxy-11β,21-dihydroxy-1,4-pregnadien-3,20-dione], the systemic bioavailability is 10-15%.
